Measured values: article doi:10.1101/2024.09.04.611205v1 (biorxiv, 2024)

Key:
cyclooxygenase 1 (COX-1) = cyclooxygenase 1 (COX-1) (Homo sapiens, UniProt P23219); assay: fluorimetric ADHP/resorufin assay; type: biochemical; conditions: read-out: % inhibition at 20 μM
cyclooxygenase 2 (COX-2) = biological target: T1, cyclooxygenase 2 (COX-2) (Homo sapiens, UniProt P35354); assay: fluorimetric ADHP/resorufin assay; type: biochemical; conditions: read-out: % inhibition at 20 μM
T1 sequence (P35354 18-604): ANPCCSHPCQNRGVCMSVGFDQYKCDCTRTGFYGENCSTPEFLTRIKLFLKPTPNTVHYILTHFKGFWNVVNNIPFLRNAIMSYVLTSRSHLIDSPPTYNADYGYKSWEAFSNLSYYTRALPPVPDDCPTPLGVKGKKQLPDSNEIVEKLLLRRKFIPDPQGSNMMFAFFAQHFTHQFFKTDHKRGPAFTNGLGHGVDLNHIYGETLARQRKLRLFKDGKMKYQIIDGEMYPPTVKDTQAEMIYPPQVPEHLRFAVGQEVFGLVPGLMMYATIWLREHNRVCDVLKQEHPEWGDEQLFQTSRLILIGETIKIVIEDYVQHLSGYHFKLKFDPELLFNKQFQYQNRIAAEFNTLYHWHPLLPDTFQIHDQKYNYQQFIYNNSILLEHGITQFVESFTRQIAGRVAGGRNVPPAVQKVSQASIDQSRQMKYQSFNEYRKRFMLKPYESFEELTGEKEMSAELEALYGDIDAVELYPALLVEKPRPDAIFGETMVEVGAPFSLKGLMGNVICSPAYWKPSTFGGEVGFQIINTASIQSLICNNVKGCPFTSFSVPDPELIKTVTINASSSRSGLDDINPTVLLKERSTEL

Sequence of cyclooxygenase 1 (COX-1) (P23219 24-599): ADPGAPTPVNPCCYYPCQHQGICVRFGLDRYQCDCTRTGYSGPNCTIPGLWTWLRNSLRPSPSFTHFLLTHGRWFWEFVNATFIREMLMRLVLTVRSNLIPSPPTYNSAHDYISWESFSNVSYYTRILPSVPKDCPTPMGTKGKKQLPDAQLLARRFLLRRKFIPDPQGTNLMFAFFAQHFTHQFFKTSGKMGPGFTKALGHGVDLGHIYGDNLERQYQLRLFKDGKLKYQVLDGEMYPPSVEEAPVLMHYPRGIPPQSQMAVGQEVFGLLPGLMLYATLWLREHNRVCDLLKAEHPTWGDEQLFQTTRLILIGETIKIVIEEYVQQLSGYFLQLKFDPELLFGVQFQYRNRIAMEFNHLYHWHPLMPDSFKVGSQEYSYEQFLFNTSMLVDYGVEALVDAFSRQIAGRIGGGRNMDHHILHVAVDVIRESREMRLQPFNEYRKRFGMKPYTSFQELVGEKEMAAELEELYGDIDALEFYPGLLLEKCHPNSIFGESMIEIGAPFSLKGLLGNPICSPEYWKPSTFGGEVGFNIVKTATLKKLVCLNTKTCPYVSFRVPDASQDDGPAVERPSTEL

inhibition at 20 µM (cyclooxygenase 1 (COX-1)): 61% | inhibition at 20 µM (cyclooxygenase 2 (COX-2)): 13%
SMILES: Cc1cccc(-c2n[nH]cc2-c2ccc3ncccc3n2)n1 [RepSox]
